Assay [1] has as its system dsDNA (ds-oligonucleotide, oligonucleotides 1 and 2) (DNA, duplex) AAATTAATATGTATTGTATATAAATTATT/AATAATTTATATACAATACATATTAATTT
Description: UV melting (260 nm). As to conditions: 0.1 M NaCl, 0.01 M MgCl2.

Assay [2] has the same test system. Briefly: circular dichroism. As to conditions: Na+ (TBS); TBS pH 7.4, 1 mM EDTA, 37 °C; 2.5 µM compound, 2.5 µM duplex. On the technique in general: CD spectra are sensitive to the conformation of chiral molecules.

In the case of `Nc1c2ccccc2nc2ccccc12`, in assay [1] (derived from two Tm (78.00 ± 0.00, control 64.97 ± 0.20), 100 µM), the ΔTm (commonly the change in melting temperature against a reference sample) came out at 13.03 °C.
With `CN(CCCNC=C1C(=O)Oc2ccccc2C1=O)CCCNC=C1C(=O)Oc2ccccc2C1=O`, in assay [1] (derived from two Tm (64.07 ± 0.14, control 64.97 ± 0.20), 15 µM, change called negligible), the ΔTm was -0.90 °C.
With `O=C1Oc2ccccc2C(=O)C1=CNCCCN1CCN(CCCNC=C2C(=O)Oc3ccccc3C2=O)CC1`, in assay [1] (derived from two Tm (64.02 ± 0.00, control 64.97 ± 0.20), 15 µM, change called negligible), the ΔTm is -0.95 °C.
`Nc1c(C(=O)NCCCN2CCN(CCCNC(=O)c3cnc4ccccc4c3N)CC2)cnc2ccccc12`: in assay [2], the binding entry is “yes”. In addition, the ΔTm in assay [1] (derived from two Tm (70.7 ± 0.71, control 64.97 ± 0.20), text says 7, 15 µM, 0.1% DMSO) was 5.73 °C.
Turning to `CN(CCCNC(=O)c1cnc2ccccc2c1N)CCCNC(=O)c1cnc2ccccc2c1N`, the ΔTm in assay [1] (derived from two Tm (64.5 ± 0.71, control 64.97 ± 0.20), 15 µM, change called negligible) is -0.47 °C.
